Measured values published in ChEMBL document CHEMBL2062396, “Synthesis and classical pathway Complement inhibitory activity of C7-functionalized filifolinol derivatives, inspired in K-76 COOH” (Eur J Med Chem, 2012).
Counter-ions that a name gives are not always drawn.

Test: Inhibition of human classical pathway Complement system assessed as inhibition of complement mediated hemolysis of sensitized sheep RBCs using fresh human sera by Weissman method; call rule not given here

## C[C@@H]1CC[C@H](O)C(C)(C)[C@]12Cc1cc(C(=O)O)cc(Cl)c1O2
read-out: IC50
  IC50: 1540 µM

## C[C@@H]1CC[C@H](O)C(C)(C)[C@]12Cc1cc(C(=O)O)cc(C(=O)O)c1O2
read-out: IC50
  IC50: 7000 µM

## C[C@@H]1CC[C@H](O)C(C)(C)[C@]12Cc1cc(C(=O)O)cc(N)c1O2
read-out: IC50
  IC50: 7270 µM

## CC1(C)CC[C@]2(C(=O)O)CC[C@]3(C)C(=CC[C@@H]4[C@@]5(C)CC[C@H](OC(=O)COCC(=O)O)C(C)(C)[C@@H]5CC[C@]43C)[C@@H]2C1 [OLEANOLIC ACID HEMIDIGLYCOLATE SODIUM SALT]
read-out: IC50
  IC50: 31 µM

## C[C@@H]1CC[C@H](O)C(C)(C)[C@]12Cc1cc(C(=O)O)cc(CCC(=O)O)c1O2
read-out: IC50
  IC50: 360 µM

## C[C@@H]1CC[C@H](O)C(C)(C)[C@]12Cc1cc(C(=O)O)ccc1O2 [FILIFOLINOIC ACID SODIUM SALT]
read-out: IC50
  IC50: 2000 µM

## C[C@@H]1CC[C@H](O)C(C)(C)[C@]12Cc1cc(C(=O)O)cc(-c3ccc(C(=O)O)cc3)c1O2
read-out: IC50
  IC50: 18000 µM

## C[C@@H]1CC[C@H](O)C(C)(C)[C@]12Cc1cc(C(=O)[O-])cc(CC(=O)O)c1O2.[Na+]
  IC50: Not Active

## C[C@@H]1CC[C@H](O)C(C)(C)[C@]12Cc1cc(C(=O)O)cc(I)c1O2
read-out: IC50
  IC50: 1140 µM

## C[C@@H]1CC[C@H](O)C(C)(C)[C@]12Cc1cc(C(=O)O)cc(Br)c1O2
read-out: IC50
  IC50: 840 µM

## C[C@@H]1CC[C@H](O)C(C)(C)[C@]12Cc1cc(C(=O)O)cc(/C=C/C(=O)O)c1O2
read-out: IC50
  IC50: 970 µM

## C[C@@H]1CC[C@H](O)C(C)(C)[C@]12Cc1cc(C(=O)O)cc(CC(O)CO)c1O2 (mixture of isomers)
read-out: IC50
  IC50: 360 µM

## C[C@@H]1CC[C@H](O)C(C)(C)[C@]12Cc1cc(C(=O)O)cc(-c3ccccc3)c1O2
read-out: IC50
  IC50: 140 µM

## C[C@@H]1CC[C@H]2C(C)(C)[C@H](O)[C@H](O)C[C@]2(C)[C@@]12Cc1c(O)cc(C(=O)O)c(C=O)c1O2
read-out: IC50
  IC50: 570 µM

## C[C@@H]1CC[C@H](O)C(C)(C)[C@]12Cc1cc(C(=O)O)cc([N+](=O)[O-])c1O2
read-out: IC50
  IC50: 1880 µM

## C[C@@H]1CC[C@H](O)C(C)(C)[C@]12Cc1cc(C(=O)O)cc(C(F)(F)F)c1O2
read-out: IC50
  IC50: 100 µM
